pEC50: −log10 of the molar value.
Target: T1, recombinant human liver GK (Homo sapiens, UniProt P35557)
T1 construct: made in house; host or cells: E. coli
T1 sequence (P35557 1-466 isoform P35557-2): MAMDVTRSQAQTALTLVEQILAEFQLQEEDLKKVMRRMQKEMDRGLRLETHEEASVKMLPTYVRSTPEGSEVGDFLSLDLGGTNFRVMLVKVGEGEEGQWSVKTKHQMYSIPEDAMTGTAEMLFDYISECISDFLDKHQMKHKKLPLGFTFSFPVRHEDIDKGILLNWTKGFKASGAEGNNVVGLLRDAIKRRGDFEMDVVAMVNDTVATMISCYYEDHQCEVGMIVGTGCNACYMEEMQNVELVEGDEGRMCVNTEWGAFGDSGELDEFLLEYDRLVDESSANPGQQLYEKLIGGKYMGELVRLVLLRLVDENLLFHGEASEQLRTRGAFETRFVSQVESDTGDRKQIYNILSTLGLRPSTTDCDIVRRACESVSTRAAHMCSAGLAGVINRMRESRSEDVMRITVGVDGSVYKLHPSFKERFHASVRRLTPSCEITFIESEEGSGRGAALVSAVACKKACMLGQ
Experiment: GK-activating potency: glucokinase activity via Thio-NADH level (G6PDH reporter enzyme)
Format: biochemical
Conditions: FLAG-GK, 30° C., final glucose concentration 2.5 mM; for Emax: OD level of DMSO control set as 100%
Source text: The excellent glucokinase-activating effect of the compounds of formula (I) may be determined by a method described in references (for example, Diabetes, Vol. 45, pp. 1671-1677, 1996), or in accordance with it.
The glucokinase activity may be determined not by directly measuring glucose-6-phosphate but by measuring the level of Thio-NADH, which is produced when a reporter enzyme, glucose-6-phosphate dehydrogenase produces phosphogluconolactone from glucose-6-phosphate, and based on the level, the degree of glucokinase activity of the compound tested may be determined.
In this assay, used was a recombinant human liver GK, which was expressed by E. coli as a FLAG fusion protein therein and was purified by ANTIFLAG M2 AFFINITY GEL (Sigma).
Using a flat-bottomed 96-well plate, the assay was carried out at 30° C. 69 μl of an assay buffer (25 mM Hepes Buffer/pH=7.2, 2 mM MgCl2, 1 mM ATP, 0.5 mM TNAD, 1 mM dithiothreitol) was put into the plate, and 1 μl of a DMSO solution of the compound or DMSO alone as a control was added thereto. Next, 20 μl of an enzyme mixture (FLAG-GK, 20 U/ml G6PDH) cooled in ice was added to it, and 10 μl of a substrate, 25 mM glucose was added to it, and the reaction was initiated (final glucose concentration=2.5 mM).
After the start of the reaction, the increase in the absorbance at 405 nm was measured for 12 minutes at intervals of 30 seconds, and the increase for the first 5 minutes was used for evaluating the compound tested. FLAG-GK was added so that the absorbance increase after 5 minutes in the presence of 1% DMSO could be from 0.04 to 0.06.
The OD level of the DMSO control was set as 100%; and the OD level of the test compound at different concentrations was determined. From the OD level at each concentration, Emax (%) and EC50 (μM) were computed and used as the index of the GK-activating potency of the compound.

pEC50 | Emax | Compound
6.92 |  | CS(=O)(=O)c1ccc(Oc2cc3nc(-c4ccccn4)[nH]c3cc2CN2C(=O)CCC2=O)cc1 [Example 1, 1-{[5-[4-(Methylsulfonyl)phenoxy]-2-(2-pyridinyl)-1H-benzimidazol-6-yl]methyl}pyrrolidine-2,5-dione]
6.31 | 982% | CCS(=O)(=O)c1ccc(Oc2cc3nc(-c4ccccn4)[nH]c3cc2CNS(C)(=O)=O)cc1 [Example 31, N-{[5-[4-(ethylsulfonyl)phenoxy]-2-(2-pyridinyl)-1H-benzimidazol-6-yl]methyl}methanesulfonamide]
6.44 | 805% | CCS(=O)(=O)c1ccc(Oc2cc3nc(-c4ccccn4)[nH]c3cc2Cc2ccc(F)cc2)cc1 [Example 65, 5-[4-(Ethylsulfonyl)phenoxy]-6-(4-fluorobenzyl)-2-(2-pyridinyl)-1H-benzimidazole]
